≈ marks a conversion by molar mass, not a printed value. Counter-ions that a name gives are not always drawn.

The subject of data set [1] is T. mentagrophytes ATCC18748. Briefly: Measurement of antifungal activity (MIC, WST8 growth inhibition). Format: cell-based. To be noted: Trichophyton mentagrophytes, 72 h; 80% growth inhibition concentration; T. mentagrophytes ATCC18748, RPMI1640/MOPS, 28° C., 3 days. How it is done: (§1) The compounds for evaluation were dissolved in dimethyl sulfoxide (DMSO) and used. As the test medium, RPMI1640 medium containing 0.165 M 3-morpholino propane sulfonic acid (MOPS) was used. As the test strain, T. mentagrophytes ATCC18748 or T. rubrum ATCC10218 was used. 100 μL of the test strain each at a concentration of 1×10^4 conidia/mL was dispensed, mixed with compounds for evaluation on 96 well half area plate so that the concentration of DMSO becomes 1%, and cultured at 28° C. for 3 days (for T. mentagrophytes) or for 4 days (for T. rubrum). Then, 5 μL of Cell Counting Kit8 (WST8) was added and the absorbances at 450 nm and 595 nm was measured as background. Subsequently, they were incubated at 28° C. for 5 hours (for T. mentagrophytes) or overnight (for T. rubrum) to color, and again the absorbances at 450 nm and 595 nm was measured, and then calculated the growth inhibition percentages using the differences from the background, and 80% growth inhibition concentration was regarded as MIC (μg/ml). Measurement of antifungal activity was conducted by the following method. Compounds for evaluation were dissolved in dimethyl sulfoxide (DMSO) and used. As the test medium, RPMI1640 medium containing 0.165 M 3-morpholinopropane sulfonic acid (MOPS) was used. As the test strain, T. mentagrophytes ATCC18748 or T. rubrum ATCC10218 was used. 100 μL of the test strain was dispensed at a concentration of 1×10^4 conidia/mL, mixed with compounds for evaluation on 96 well half area plate so that the concentration of DMSO becomes 1%, and cultured at a culture temperature of 28° C. for 3 days (for T. mentagrophytes) or for 4 days (for T. rubrum). Then, 5 μL of Cell Counting Kit8 (WST8) was added and the absorbances at 450 nm and 595 nm was measured as background. Subsequently, they were incubated at 28° C. for 5 hours (for T. mentagrophytes) or overnight (for T. rubrum), and again measured the absorbances at 450 nm and 595 nm was measured, and then calculated the growth inhibition percentages using the differences from the background, and 80% growth inhibition concentration was regarded as MIC (μg/ml).
(In general: Tetrazolium assays rely on reduction of a dye to a coloured formazan, in cell work by metabolically active cells.)

The test system of a further data set is T. rubrum ATCC10218. The description is as above. Format: cell-based. Conditions: Trichophyton rubrum, 96 h; 80% growth inhibition concentration; T. rubrum ATCC10218, RPMI1640/MOPS, 28° C., 4 days. How it is done:
as §1

Data set [2] can be described thus: Nail permeability test (bovine hoof slice on agarose). Format: in vitro ADME. Conditions: 2 μL of 10 mg/mL solution on bovine hoof slice (about 100 μm), 28° C., 5 days. How it is done:
Compounds for evaluation were each dissolved in a solution of ethyl acetate:propylene glycol (1:1) or dimethyl sulfoxide at a concentration of 10 mg/mL. 2 μL each of the solutions was added to a bovine hoof slice placed on a low-melting-point agarose. After incubation at 28° C. for 5 days, the agaroses were collected, distilled water was added thereto, and the mixtures were heated and dissolved. The concentrations of the compound in the solutions were determined using a high performance liquid chromatography/mass spectrometry apparatus to obtain the amounts of the agents permeated through the hoof and to calculate the permeabilities of the respective agents. Since the permeability of bovine hoof and human nail correlates as described in J. Pharma. Pharmacol., vol. 49, pp. 866-872, 1997, the nail permeability test was conducted using a bovine hoof in the present invention. Example compounds and comparative compounds (amorolfine hydrochloride, terbinafine hydrochloride and ciclopirox) were each dissolved in a solution of ethyl acetate:propylene glycol (1:1) or dimethyl sulfoxide at a concentration of 10 mg/mL. […] The concentrations of the compounds in the solutions were determined using a high performance liquid chromatography/mass spectrometry apparatus to obtain the amounts of the agents permeated through the nail and calculate the permeabilities of the respective agents.

With `CCC(C)(C)c1ccc(CC(C)CN2C[C@@H](C)O[C@@H](C)C2)cc1` (some centres unmarked) [Amorolfine hydrochloride, reference compound], the MIC (in general, the lowest concentration found to suppress growth) in data set [1] is no more than 1 µg/mL; in the data set on T. rubrum ATCC10218, no more than 2 µg/mL. Further, the Nail permeability entry in data set [2] is “E (<0.1%)”.

As for `Cc1cc(C)n(-c2c(C)cccc2O)n1` [Example 46, 2-(3,5-Dimethyl-1H-pyrazol-1-yl)-3-methylphenol], in data set [1], the inhibition of growth (usually the drop in the measured response relative to a control, in per cent) at 32 µg/mL is less than 50%. In the data set with T. rubrum ATCC10218, this molecule showed an MIC of 32 to 64 µg/mL (≈ 158 to 316 µM).

Take `Cc1cc(C)n(-c2ccc(CO)cc2O)n1` [Example 47, 2-(3,5-Dimethyl-1H-pyrazol-1-yl)-5-hydroxymethylphenol]: the minimum inhibitory concentration (MIC) in data set [1] is 2 to 8 µg/mL (≈ 9.16 to 36.7 µM); against T. rubrum ATCC10218, 4 to 16 µg/mL (≈ 18.3 to 73.3 µM).

`CNc1ccc(-n2nc(C)cc2C)c(O)c1` [Example 48, 2-(3,5-Dimethyl-1H-pyrazol-1-yl)-5-methylaminophenol]: the values for the MIC (in data set [1]; against T. rubrum ATCC10218) were 2 to 8 µg/mL (≈ 9.21 to 36.8 µM) and 4 to 16 µg/mL (≈ 18.4 to 73.6 µM), respectively.

In turn, `Cc1ccc(O)c(-n2nc(C)cc2C)c1` [Example 49, 2-(3,5-Dimethyl-1H-pyrazol-1-yl)-4-methylphenol] had an inhibition of growth at 32 µg/mL in data set [1] of less than 50%. For the same molecule, the minimal inhibitory concentration (MIC) with T. rubrum ATCC10218 fell in the range of 32 to 64 µg/mL (≈ 158 to 316 µM).

For `Cc1cc(C)n(-c2ccc(C(F)(F)F)cc2O)n1` [Example 50, 2-(3,5-Dimethyl-1H-pyrazol-1-yl)-5-trifluoromethylphenol], the values for the MIC (in data set [1]; in the data set on T. rubrum ATCC10218) were 2 to 8 µg/mL (≈ 7.81 to 31.2 µM) and 4 to 16 µg/mL (≈ 15.6 to 62.4 µM), respectively.

For the molecule `Cc1cc(C)n(-c2cccc(C)c2O)n1` [Example 51, 2-(3,5-dimethyl-1H-pyrazol-1-yl)-6-methylphenol], the inhibition of growth at 32 µg/mL in data set [1] is less than 50%. In addition, the MIC against T. rubrum ATCC10218 lay within 32 to 64 µg/mL (≈ 158 to 316 µM).

For the molecule `CCc1ccc(-n2nc(C)cc2C)c(O)c1` [Example 52, 2-(3,5-dimethyl-1H-pyrazol-1-yl)-5-ethylphenol], the MIC in data set [1] was no more than 1 µg/mL; against T. rubrum ATCC10218, no more than 2 µg/mL.

Turning to `Cc1nn(-c2ccccc2O)c(C)c1F` [Example 53, 2-(4-Fluoro-3,5-dimethyl-1H-pyrazol-1-yl)phenol], the MIC in data set [1] fell in the range of 2 to 8 µg/mL (≈ 9.7 to 38.8 µM); against T. rubrum ATCC10218, 4 to 16 µg/mL (≈ 19.4 to 77.6 µM).

With `Cc1cc(C)n(-c2ccc(Br)cc2O)n1` [Example 54, 5-bromo-2-(3,5-dimethyl-1H-pyrazol-1-yl)phenol], the MIC in data set [1] is no more than 1 µg/mL; in the data set with T. rubrum ATCC10218, no more than 2 µg/mL.

Regarding `Cc1nn(-c2ccc(Br)cc2O)c(C)c1Cl` [Example 55, 5-bromo-2-(4-chloro-3,5-dimethyl-1H-pyrazol-1-yl)phenol], the MIC in data set [1] is no more than 1 µg/mL; in the data set with T. rubrum ATCC10218, no more than 2 µg/mL.

As to `Cc1nn(-c2ccc(Br)cc2O)c(C)c1C` [Example 56, 5-bromo-2-(3,4,5-trimethyl-1H-pyrazol-1-yl)phenol], the MIC was no more than 1 µg/mL in data set [1] and no more than 2 µg/mL against T. rubrum ATCC10218.

As for `CC(=O)Oc1ccc(-n2nc(C)cc2C)c(O)c1` [Example 57, 4-(3,5-dimethyl-1H-pyrazol-1-yl)-3-hydroxyphenyl acetate], the MIC in data set [1] was in the range of 2 to 8 µg/mL; in the data set with T. rubrum ATCC10218, 4 to 16 µg/mL.

In the case of `CC(=O)Oc1ccc(-n2nc(C)c(Cl)c2C)c(O)c1` [Example 58, 4-(4-chloro-3,5-dimethyl-1H-pyrazol-1-yl)-3-hydroxyphenyl acetate], the figures for the MIC (in data set [1]; against T. rubrum ATCC10218) were 2 to 8 µg/mL and no more than 2 µg/mL, respectively.

With `CC(=O)Oc1ccc(-n2nc(C)c(C)c2C)c(O)c1` [Example 59, 3-hydroxy-4-(3,4,5-trimethyl-1H-pyrazol-1-yl)phenyl acetate], the results for the MIC (in data set [1]; against T. rubrum ATCC10218) were 2 to 8 µg/mL and 4 to 16 µg/mL, respectively.

Consider `Cc1cc(C)n(-c2cc(Cl)c(C)cc2O)n1` [Example 61, 4-chloro-2-(3,5-dimethyl-1H-pyrazol-1-yl)-5-methylphenol], for which the MIC (in data set [1]; with T. rubrum ATCC10218) was 16 to 32 µg/mL (≈ 67.6 to 135 µM) each time.

For the molecule `Cc1nn(-c2ccc(O)cc2O)c(C)c1Cl` [Example 63, 4-(4-chloro-3,5-dimethyl-1H-pyrazol-1-yl)benzene-1,3-diol], the MIC is no more than 1 µg/mL in data set [1] and no more than 2 µg/mL against T. rubrum ATCC10218.

With `CN(C/C=C/C#CC(C)(C)C)Cc1cccc2ccccc12` [Terbinafine hydrochloride, reference compound], the minimum inhibitory concentration (MIC) is no more than 1 µg/mL in data set [1] and no more than 2 µg/mL in the data set with T. rubrum ATCC10218. Also, the Nail permeability entry in data set [2] is given as “E (<0.1%)”.

For the origin of these results see patent US8889727B2, “Topical antifungal agent” (Meiji Seika Pharma Co., Ltd., priority 2011, dated 2014).
